This note sets out measurements from the SangsterLogP compilation.

Series [1] can be described thus: method code SF-AS, from DOI: 10.2307/3574491, PMID: 940937. The settings on record: pH 7.4.
A short description of series [2]: method code SF-GLC, from DOI: 10.1897/1552-8618(1989)8[499:dowpcf]2.0.co;2.
Experiment in series [3]: not given
The source holds these as a separate data set.

Experiment in series [4]: not given
This is another data set of the same source.

Experiment in series [5]: not given
This is another data set of the same source.

Experiment in series [6]: not given
This is another data set of the same source.

The nature of series [7]: method code SF, from ISBN: 9780815518525. As to conditions: pH 7.0.
For series [8] the following is noted: pH 6.0.
Series [9] in a line: method code SF-HPLC, from DOI: 10.1021/js980008v, PMID: 9758683.
Experiment in series [10]: not given
This is another data set of the same source.

Experiment in series [11]: not given
This is another data set of the same source.

A short description of series [12]: method code SF-HPLC, from DOI: 10.13422/j.cnki.syfjx.2013.03.051.
Experiment in series [13]: not given
This is another data set of the same source.

Series [14] in a line: method code SF-AS, from DOI: 10.1023/a:1021720128725.
Experiment in series [15]: not given
This is another data set of the same source.

Series [16] is described as follows: method code SF, from ISBN: 9780948404450.
Series [17] in a line: method code SF, from ISBN: 9780444415486.

What is called logD is lipophilicity at a set pH, counting ionised and neutral species. A higher logD goes with a more lipophilic compound. The term logP denotes the decadic logarithm of the partition coefficient of the neutral form, usually between octanol and water. A higher logP goes with a more lipophilic compound.

As to `O=[N+]([O-])c1nccn1CC(O)CO` (stereo not given), the logD in series [1] is -0.96. In turn, `CCc1ccc2c(c1)C(=O)c1ccccc1C2=O` displayed a logP in series [2] of 4.37. Molecule `OCCN(CCO)CCO` showed a logP of -1.32. Take `Oc1ccccc1`: the logP in series [3] worked out at 1.6. The molecule `N#Cc1cc(Br)c(O)c(Br)c1` returned a logP in series [4] of 2.7. For `CSc1nc(NC(C)C)nc(NC(C)C)n1`, the logP in series [5] is 3.36.

For the molecule `Nc1ccccc1`, the logP in series [6] worked out at 1.08. For the molecule `CNC(=O)N(C)c1nnc(C(C)(C)C)s1`, the logD in series [7] turned out to be 1.79. In series [8], `CC(=O)[C@H]1CC[C@H]2[C@@H]3CCC4=CC(=O)CC[C@]4(C)[C@H]3CC[C@]12C` yielded a logD of 3.7. `OCCOCCOCCOCCO` had a logP of -1.38. In [9], `CCCC(=O)OCN1C(=O)NC(c2ccccc2)(c2ccccc2)C1=O` yielded a logP of 3.9. The molecule `O=C(O)c1c(O)cccc1O` yielded a logP in series [10] of 1.23. `O=C(O)c1ccccc1C(=O)Nc1cccc2ccccc12` came in with a logP in series [4] of 3.

The molecule `Cc1ccccc1/C=C/[N+](=O)[O-]` had a lipophilicity (logP) in series [11] of 2.63.

`O=C1C=CC[C@@H]2[C@H]3CCC[N+]4([O-])CCC[C@@H](CN12)[C@@H]34` (stereo not given in full) yielded a logP in series [12] of -0.44. In series [13], `Cc1ccccc1C(=N)c1ccccc1C` yielded a log partition coefficient (logP) of 3.31.

As to `c1ccc(Oc2cccc(-c3ccccc3)c2)cc1`, the logP is 5.55. In [9], `CC(=O)OCN1C(=O)NC(c2ccccc2)(c2ccccc2)C1=O` returned a logP of 2.8. In [2], `Clc1cc(Cl)c(Cl)cc1Cl` gave a logP of 4.6. Regarding `CC(C)(C)c1cn2c(=O)c3ncn(COCCO)c3nc2[nH]1`, the logP in series [14] came to 0.62. With `O=C1NC(c2ccccc2)(c2ccccc2)C(=O)N1CO`, the logP in [9] amounted to 2.23.

In the case of `O=C1NC(=O)C(c2ccccc2)(c2ccccc2)N1`, in series [9], the logP came to 2.21. The logP values of the last two molecules are within 0.2 log units of each other. In the case of `Nc1nc2c(ncn2COCCO)c(=O)[nH]1`, the logP in series [14] is -1.44. In turn, `CCS(=O)CCSP(=O)(OC)OC` (stereo not given) registered a logP in [15] of -0.74. In [14], `Cc1cn2c(=O)c3c(nc2[nH]1)N(COCCO)C(Br)N3` (stereo not given) came in with a logP of -0.11. With `CCS(=O)c1sc(C#N)c(Cl)c1C#N` (stereo not given), in series [16], the logP came out at 2.54. As for `CN1C(=O)OC(c2ccccc2)C1=O` (stereo not given), the logP in [17] worked out at 1.06. As for `CC(=O)Nc1cc(C(C)(C)C)c(O)cc1C`, the logP in series [13] amounted to 2.18. Turning to `COC(=O)CCn1c(C)cnc1[N+](=O)[O-]`, in [1], the logD was -0.25. On to `CCCCNCCCC`, for which the logP was found to be 2.68.
